Test results as given in the supplement of paper PMC11451515.

Tested on: SEM cells
Assay: cell viability relative to DMSO control; higher = less cytotoxic
Settings: 48 h
Procedure, shortened: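 Library compounds in DMSO were pin-dosed into 1536-well plates (5 μl) holding NOMO1 or SEM (500 cells/well) or P12-Ichikawa (1000 cells/well) leukemia cells, across an 11-point threefold series of 47 μM to 0.79 nM. Each cell line had been adapted for at least four passages in each medium. CellTiter-Glo One luminescence was read after 48 h at 37°C. Viability is the per-plate percentage relative to DMSO wells, with cell-free wells as background.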

[1] = HPLM + 10% dialyzed FBS, 0.000781 µM
[2] = HPLM + 10% dialyzed FBS, 0.00234 µM
[3] = HPLM + 10% dialyzed FBS, 0.00702 µM
[4] = HPLM + 10% dialyzed FBS, 0.0211 µM
[5] = HPLM + 10% dialyzed FBS, 0.0632 µM
[6] = HPLM + 10% dialyzed FBS, 0.19 µM
[7] = HPLM + 10% dialyzed FBS, 0.569 µM
[8] = HPLM + 10% dialyzed FBS, 1.71 µM
[9] = HPLM + 10% dialyzed FBS, 5.12 µM
[10] = HPLM + 10% dialyzed FBS, 15.4 µM
[11] = HPLM + 10% dialyzed FBS, 46.1 µM
[12] = RPMI 5 mM glucose + 10% FBS, 0.000781 µM
[13] = RPMI 5 mM glucose + 10% FBS, 0.00234 µM
[14] = RPMI 5 mM glucose + 10% FBS, 0.00702 µM
[15] = RPMI 5 mM glucose + 10% FBS, 0.0211 µM
[16] = RPMI 5 mM glucose + 10% FBS, 0.0632 µM
[17] = RPMI 5 mM glucose + 10% FBS, 0.19 µM
[18] = RPMI 5 mM glucose + 10% FBS, 0.569 µM
[19] = RPMI 5 mM glucose + 10% FBS, 1.71 µM
[20] = RPMI 5 mM glucose + 10% FBS, 5.12 µM
[21] = RPMI 5 mM glucose + 10% FBS, 15.4 µM
[22] = RPMI 5 mM glucose + 10% FBS, 46.1 µM
[23] = RPMI 5 mM glucose + 10% dialyzed FBS, 0.000781 µM
[24] = RPMI 5 mM glucose + 10% dialyzed FBS, 0.00234 µM
[25] = RPMI 5 mM glucose + 10% dialyzed FBS, 0.00702 µM
[26] = RPMI 5 mM glucose + 10% dialyzed FBS, 0.0211 µM
[27] = RPMI 5 mM glucose + 10% dialyzed FBS, 0.0632 µM
[28] = RPMI 5 mM glucose + 10% dialyzed FBS, 0.19 µM
[29] = RPMI 5 mM glucose + 10% dialyzed FBS, 0.569 µM
[30] = RPMI 5 mM glucose + 10% dialyzed FBS, 1.71 µM
[31] = RPMI 5 mM glucose + 10% dialyzed FBS, 5.12 µM
[32] = RPMI 5 mM glucose + 10% dialyzed FBS, 15.4 µM
[33] = RPMI 5 mM glucose + 10% dialyzed FBS, 46.1 µM

SMILES | cell viability [1] | cell viability [2] | cell viability [3] | cell viability [4] | cell viability [5] | cell viability [6] | cell viability [7] | cell viability [8] | cell viability [9] | cell viability [10] | cell viability [11] | cell viability [12] | cell viability [13] | cell viability [14] | cell viability [15] | cell viability [16] | cell viability [17] | cell viability [18] | cell viability [19] | cell viability [20] | cell viability [21] | cell viability [22] | cell viability [23] | cell viability [24] | cell viability [25] | cell viability [26] | cell viability [27] | cell viability [28] | cell viability [29] | cell viability [30] | cell viability [31] | cell viability [32] | cell viability [33]
O=C1CCc2cc(OCCCCc3nnnn3C3CCCCC3)ccc2N1 | 79.2% | 83.1% | 101% | 92% | 92.9% | 83.8% | 88.8% | 96.2% | 97.8% | 104% | 99.3% | 88.8% | 88.8% | 92% | 91.5% | 88.7% | 75.7% | 107% | 104% | 89.2% | 104% | 81.3% | 80.1% | 90% | 100% | 86.2% | 78.5% | 87.6% | 92.2% | 92.7% | 101% | 90.6% | 88.2%
COC1=CC=CC(=C1/C2=N/CC3=C(N=C(NC4=CC(=C(C=C4)C(O)=O)OC)N=C3)C5=CC=C(Cl)C=C25)F | 83.2% | 75.2% | 93.3% | 79.7% | 65.7% | 26% | 25.3% | 33.1% | 28.9% | 25.8% | 23.4% | 91.7% | 84.3% | 85.4% | 85.4% | 68.7% | 16.6% | 18.1% | 16.5% | 18.9% | 14% | 16.4% | 75.5% | 80.7% | 82.2% | 88.8% | 54% | 20.2% | 21.1% | 24% | 23.9% | 15.7% | 17.8%
CO[C@H]1C[C@H]2OC[C@@]2(OC(C)=O)[C@H]3[C@H](OC(=O)C4=CC=CC=C4)[C@]5(O)C[C@H](OC(=O)[C@H](O)[C@@H](NC(=O)OC(C)(C)C)C6=CC=CC=C6)/C(=C(/[C@@H](OC)C(=O)[C@]13C)C5(C)C)C | 61.3% | 70.2% | 80.6% | 15.4% | 16.5% | 17.7% | 16% | 15% | 18.1% | 13.6% | 15.8% | 89.4% | 96.1% | 11.1% | 9.9% | 12.3% | 14% | 11.2% | 15.1% | 12.7% | 13.2% | 13.4% | 64% | 61.2% | 80.6% | 11.2% | 13.9% | 13.5% | 14.1% | 13.7% | 13.2% | 11.6% | 11.8%
O=C(O)CCCc1ccc(N(CCCl)CCCl)cc1 | 96.5% | 108% | 112% | 119% | 120% | 129% | 125% | 136% | 120% | 102% | 55.5% | 95.7% | 91.8% | 126% | 122% | 114% | 126% | 121% | 119% | 124% | 101% | 20.2% | 97.4% | 113% | 120% | 111% | 128% | 129% | 133% | 122% | 137% | 113% | 36.8%
CCc1nc(C(N)=O)c(Nc2ccc(N3CCC(N4CCN(C)CC4)CC3)c(OC)c2)nc1NC1CCOCC1 | 92.9% | 105% | 120% | 104% | 95.5% | 65% | 42.9% | 36.3% | 21.1% | 17.8% | 14.6% | – | – | – | – | – | – | – | – | – | – | – | 115% | 97.9% | 138% | 139% | 94% | 69.6% | 43% | 33.1% | 17% | 18.3% | 12.2%
O=C(c1ccc(C(=O)N2CCC(N3CCCC3)CC2)c(Nc2ccccc2)c1)N1CCC(N2CCCC2)CC1 | 119% | 111% | 115% | 94.8% | 116% | 113% | 107% | 107% | 103% | 98.7% | 96.4% | 112% | 106% | 109% | 104% | 105% | 115% | 117% | 102% | 89% | 102% | 103% | 80.7% | 91.2% | 102% | 104% | 98% | 102% | 104% | 112% | 101% | 88.5% | 82.6%
COC1=C(CC=C(C)C)C2=C(\C=C/C(=O)O2)C=C1 | 83.3% | 79.7% | 80.4% | 89.5% | 76.9% | 90.1% | 74.6% | 98.6% | 71.8% | 71.1% | 58.5% | 93.2% | 103% | 95.4% | 117% | 102% | 112% | 100% | 81.4% | 77.5% | 65.9% | 53.6% | 108% | 118% | 121% | 103% | 99.7% | 113% | 115% | 91.8% | 85% | 90.2% | 54.2%
